Source: publication PMC4699737, “TrpA1 Regulates Defecation of Food-Borne Pathogens under the Control of the Duox Pathway” (PLoS Genetics, 2016)

What was measured:
Assay in all cases: two-electrode voltage clamp, Xenopus oocytes, Hill fit
Assay type in all cases: cell-based
Conditions in all cases: agonist (activation); -60 mV, pH 7.6; currents normalized to 100 ppm NaOCl, steady state
[1] = molecular target: T1, TRPA1(A)10a (Drosophila melanogaster, UniProt G8IQ59)
T1 construct: full-length splice isoform, TrpA1 cRNA injected in Xenopus laevis oocytes
T1 sequence (G8IQ59 1-1232): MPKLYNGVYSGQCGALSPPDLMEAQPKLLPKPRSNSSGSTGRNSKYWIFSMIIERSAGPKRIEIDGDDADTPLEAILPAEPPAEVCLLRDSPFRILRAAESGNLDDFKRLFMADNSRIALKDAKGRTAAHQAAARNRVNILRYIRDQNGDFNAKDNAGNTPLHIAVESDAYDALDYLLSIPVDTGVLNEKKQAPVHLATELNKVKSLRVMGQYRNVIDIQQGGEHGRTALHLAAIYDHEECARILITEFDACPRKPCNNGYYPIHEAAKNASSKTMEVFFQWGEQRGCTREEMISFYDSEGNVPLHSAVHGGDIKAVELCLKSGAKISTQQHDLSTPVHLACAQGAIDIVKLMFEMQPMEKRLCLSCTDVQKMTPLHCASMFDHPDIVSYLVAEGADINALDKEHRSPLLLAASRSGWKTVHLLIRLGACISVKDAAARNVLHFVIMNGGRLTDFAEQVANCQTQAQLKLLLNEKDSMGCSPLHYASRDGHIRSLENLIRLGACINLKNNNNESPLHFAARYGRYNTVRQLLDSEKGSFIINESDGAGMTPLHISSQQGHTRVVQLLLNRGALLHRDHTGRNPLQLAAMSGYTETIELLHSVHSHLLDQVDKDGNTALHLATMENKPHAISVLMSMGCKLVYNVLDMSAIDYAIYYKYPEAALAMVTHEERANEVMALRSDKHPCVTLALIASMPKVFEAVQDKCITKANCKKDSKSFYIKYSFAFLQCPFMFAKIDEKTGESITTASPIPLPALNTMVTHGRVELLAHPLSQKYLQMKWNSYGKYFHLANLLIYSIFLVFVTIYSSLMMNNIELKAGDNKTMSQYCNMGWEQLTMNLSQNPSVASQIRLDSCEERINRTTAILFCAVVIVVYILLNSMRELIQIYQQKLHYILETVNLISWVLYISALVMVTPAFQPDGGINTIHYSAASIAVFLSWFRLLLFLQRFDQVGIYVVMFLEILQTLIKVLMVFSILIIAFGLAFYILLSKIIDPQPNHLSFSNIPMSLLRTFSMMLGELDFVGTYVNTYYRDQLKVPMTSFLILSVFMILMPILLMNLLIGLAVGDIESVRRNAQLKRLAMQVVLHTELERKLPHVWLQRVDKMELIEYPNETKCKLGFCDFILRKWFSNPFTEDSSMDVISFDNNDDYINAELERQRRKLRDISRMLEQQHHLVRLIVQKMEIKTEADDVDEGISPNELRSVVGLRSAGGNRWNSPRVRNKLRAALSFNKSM

[2] = molecular target: T2, TRPA1(A)10b (Drosophila melanogaster, UniProt H0USS9)
T2 construct: full-length splice isoform, TrpA1 cRNA injected in Xenopus laevis oocytes
T2 sequence (H0USS9 1-1231): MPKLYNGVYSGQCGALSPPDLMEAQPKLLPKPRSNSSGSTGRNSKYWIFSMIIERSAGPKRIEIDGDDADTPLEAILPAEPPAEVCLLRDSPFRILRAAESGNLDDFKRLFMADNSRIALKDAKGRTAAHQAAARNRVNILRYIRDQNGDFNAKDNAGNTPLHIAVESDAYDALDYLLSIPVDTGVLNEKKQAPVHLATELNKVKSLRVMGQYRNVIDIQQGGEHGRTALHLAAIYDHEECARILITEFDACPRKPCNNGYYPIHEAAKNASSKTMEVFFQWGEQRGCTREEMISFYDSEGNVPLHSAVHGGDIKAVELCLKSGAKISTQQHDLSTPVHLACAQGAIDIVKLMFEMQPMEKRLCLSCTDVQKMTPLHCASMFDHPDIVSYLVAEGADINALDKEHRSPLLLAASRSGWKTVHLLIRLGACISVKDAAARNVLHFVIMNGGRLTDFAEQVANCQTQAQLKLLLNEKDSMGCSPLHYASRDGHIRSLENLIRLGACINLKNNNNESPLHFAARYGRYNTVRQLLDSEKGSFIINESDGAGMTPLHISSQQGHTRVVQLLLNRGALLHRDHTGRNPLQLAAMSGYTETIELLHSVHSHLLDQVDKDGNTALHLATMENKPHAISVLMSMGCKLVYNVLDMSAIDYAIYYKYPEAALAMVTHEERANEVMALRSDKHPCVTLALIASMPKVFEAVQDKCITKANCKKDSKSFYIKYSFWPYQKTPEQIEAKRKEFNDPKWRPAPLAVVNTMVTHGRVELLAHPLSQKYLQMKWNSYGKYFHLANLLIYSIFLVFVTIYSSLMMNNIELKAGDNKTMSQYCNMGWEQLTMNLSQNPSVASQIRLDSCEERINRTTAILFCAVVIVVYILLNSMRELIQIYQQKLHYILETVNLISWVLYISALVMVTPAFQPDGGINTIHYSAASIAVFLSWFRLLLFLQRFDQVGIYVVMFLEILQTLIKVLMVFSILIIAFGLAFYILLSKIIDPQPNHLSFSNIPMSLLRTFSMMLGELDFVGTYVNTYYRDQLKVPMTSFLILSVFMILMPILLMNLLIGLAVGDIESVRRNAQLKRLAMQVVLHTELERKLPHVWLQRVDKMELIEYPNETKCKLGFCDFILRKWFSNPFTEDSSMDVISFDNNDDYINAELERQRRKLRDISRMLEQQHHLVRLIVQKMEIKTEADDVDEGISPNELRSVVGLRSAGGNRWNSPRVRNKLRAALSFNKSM
Excerpt: two-electrode voltage clamp, Xenopus oocytes, Hill fit on TRPA1(A)10b | The data were fitted to Hill equation to determine EC50s

[3] = molecular target: T3, hsTRPA1 (Homo sapiens, UniProt O75762)
T3 construct: gene TRPA1; full-length, cRNA injected in Xenopus laevis oocytes

[4] = molecular target: T4, TRPA1(B)10a (Drosophila melanogaster, UniProt Q7Z020)
T4 construct: full-length splice isoform, TrpA1 cRNA injected in Xenopus laevis oocytes
T4 sequence (Q7Z020 1-1197): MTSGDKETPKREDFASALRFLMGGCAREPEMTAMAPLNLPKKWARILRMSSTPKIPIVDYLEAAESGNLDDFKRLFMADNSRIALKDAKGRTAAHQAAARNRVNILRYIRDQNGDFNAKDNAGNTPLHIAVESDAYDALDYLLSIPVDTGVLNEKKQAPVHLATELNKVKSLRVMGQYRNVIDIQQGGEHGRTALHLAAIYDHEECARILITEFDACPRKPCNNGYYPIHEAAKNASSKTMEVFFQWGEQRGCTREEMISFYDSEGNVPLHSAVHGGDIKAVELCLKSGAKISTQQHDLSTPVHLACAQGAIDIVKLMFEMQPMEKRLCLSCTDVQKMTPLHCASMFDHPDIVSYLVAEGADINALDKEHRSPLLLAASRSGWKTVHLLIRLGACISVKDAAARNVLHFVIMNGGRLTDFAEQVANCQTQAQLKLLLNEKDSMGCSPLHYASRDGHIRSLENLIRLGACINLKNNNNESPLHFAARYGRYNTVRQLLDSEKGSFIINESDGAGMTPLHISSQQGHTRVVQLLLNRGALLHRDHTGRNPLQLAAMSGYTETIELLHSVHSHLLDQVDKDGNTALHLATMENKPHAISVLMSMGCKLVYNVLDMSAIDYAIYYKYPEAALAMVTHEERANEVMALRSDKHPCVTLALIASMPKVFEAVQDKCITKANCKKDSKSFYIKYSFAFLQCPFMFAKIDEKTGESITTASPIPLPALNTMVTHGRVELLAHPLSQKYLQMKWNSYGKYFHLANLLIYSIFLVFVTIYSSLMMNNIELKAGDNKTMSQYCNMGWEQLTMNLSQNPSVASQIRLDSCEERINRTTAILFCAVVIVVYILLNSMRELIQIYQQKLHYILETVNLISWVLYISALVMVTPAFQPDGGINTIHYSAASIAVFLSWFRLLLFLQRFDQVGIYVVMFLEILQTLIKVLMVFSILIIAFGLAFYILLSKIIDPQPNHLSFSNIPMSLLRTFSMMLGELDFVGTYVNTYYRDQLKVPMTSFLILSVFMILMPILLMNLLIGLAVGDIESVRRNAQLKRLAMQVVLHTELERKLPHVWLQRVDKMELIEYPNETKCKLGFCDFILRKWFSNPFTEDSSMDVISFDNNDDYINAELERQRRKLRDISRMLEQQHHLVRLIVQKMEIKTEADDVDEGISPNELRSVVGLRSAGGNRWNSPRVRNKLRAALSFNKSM

T3 sequence (O75762 whole entry): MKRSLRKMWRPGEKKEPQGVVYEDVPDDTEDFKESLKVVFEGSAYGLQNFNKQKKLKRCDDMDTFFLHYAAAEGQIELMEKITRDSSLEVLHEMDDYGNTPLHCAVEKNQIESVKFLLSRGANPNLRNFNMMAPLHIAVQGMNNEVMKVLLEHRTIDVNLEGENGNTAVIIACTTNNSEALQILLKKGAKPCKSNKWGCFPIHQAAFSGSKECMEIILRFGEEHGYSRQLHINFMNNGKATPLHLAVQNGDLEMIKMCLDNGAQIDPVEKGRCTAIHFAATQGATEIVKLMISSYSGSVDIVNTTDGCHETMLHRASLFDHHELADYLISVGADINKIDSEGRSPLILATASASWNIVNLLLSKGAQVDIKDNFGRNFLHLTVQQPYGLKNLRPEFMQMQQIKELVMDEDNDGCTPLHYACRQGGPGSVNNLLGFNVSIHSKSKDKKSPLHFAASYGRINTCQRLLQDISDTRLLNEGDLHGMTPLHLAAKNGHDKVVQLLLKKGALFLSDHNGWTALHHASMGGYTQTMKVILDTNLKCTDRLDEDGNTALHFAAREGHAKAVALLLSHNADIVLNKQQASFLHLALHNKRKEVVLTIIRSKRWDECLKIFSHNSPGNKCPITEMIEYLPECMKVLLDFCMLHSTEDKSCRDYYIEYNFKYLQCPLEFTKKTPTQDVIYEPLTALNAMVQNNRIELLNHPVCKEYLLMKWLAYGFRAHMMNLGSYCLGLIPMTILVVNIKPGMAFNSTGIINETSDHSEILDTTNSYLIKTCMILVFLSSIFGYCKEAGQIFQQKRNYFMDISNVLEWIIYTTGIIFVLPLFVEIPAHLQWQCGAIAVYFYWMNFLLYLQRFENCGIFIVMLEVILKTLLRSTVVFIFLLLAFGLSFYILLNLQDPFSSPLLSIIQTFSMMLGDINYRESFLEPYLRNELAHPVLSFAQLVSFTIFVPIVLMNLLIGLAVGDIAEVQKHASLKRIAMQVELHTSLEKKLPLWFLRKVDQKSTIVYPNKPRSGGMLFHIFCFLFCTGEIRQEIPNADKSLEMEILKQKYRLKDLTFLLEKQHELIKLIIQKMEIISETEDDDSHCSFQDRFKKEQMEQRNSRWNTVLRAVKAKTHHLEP

Q: What does the source list for OCl [NaOCl]?
A: EC50 [1]: 5.7±0.6 ppm; EC50 [2]: 1.7±0.7 ppm; EC50 [3]: 21.1±3.6 ppm; EC50 [4]: 13.2±1.0 ppm
